These results are taken from patent US10124004B2, “Pyrido[3,4-d]pyrimidine derivative and pharmaceutically acceptable salt thereof” (Teijin Pharma Limited, priority 2015, dated 2018).

Structures are written as SMILES.

The target of one assay is T1, CDK4/cyclin D3 (Homo sapiens, UniProt P11802).
T1 construct: purchased Carna Biosciences, Inc. QS S Assist CDK4/Cyclin D3_FP Kit
Description: Human CDK4/cyclin D3 inhibitory activity (QS S Assist CDK4/Cyclin D3_FP Kit, IMAP fluorescence polarization). The settings on record: 50% inhibitory concentration against CDK4/cyclin D3, given as class symbol. It counts as biochemical. The essentials:
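IMAP fluorescence-polarization kinase assay with kit ATP/substrate/metal mix and 12.5 to 25 ng/well enzyme in 20 mM HEPES pH 7.4, 0.01% Tween20, 2 mM DTT. Reaction ran 45 min at room temperature, then binding reagent was added for 30 min in the dark. IC50 was taken from dose-response fits of percent inhibition.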
Background: Fluorescence polarisation rises when a labelled molecule tumbles more slowly, as on binding a larger partner.

Another assay addresses T2, CDK2/cyclin A2 (Homo sapiens, UniProt P24941).
T2 construct: purchased Carna Biosciences, Inc. QS S Assist CDK2/Cyclin A2_FP Kit
The assay is described as follows: Human CDK2/cyclin A2 inhibitory activity (QS S Assist CDK2/Cyclin A2_FP Kit, IMAP fluorescence polarization). The settings on record: 50% inhibitory concentration against CDK2/cyclin A2, given as class symbol. It counts as biochemical. The essentials:
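Kinase activity read as fluorescence polarization (485/535 nm) after phosphorylated fluorescent substrate binds IMAP reagent (30 min, RT, dark). Enzyme (2.5 ng/well) reacted 60 min at RT with ATP/substrate/metal in HEPES pH 7.4 buffer with Tween 20 and DTT; no-enzyme wells define 0% activity; IC50 by curve fit.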

T1 sequence (P11802 whole entry): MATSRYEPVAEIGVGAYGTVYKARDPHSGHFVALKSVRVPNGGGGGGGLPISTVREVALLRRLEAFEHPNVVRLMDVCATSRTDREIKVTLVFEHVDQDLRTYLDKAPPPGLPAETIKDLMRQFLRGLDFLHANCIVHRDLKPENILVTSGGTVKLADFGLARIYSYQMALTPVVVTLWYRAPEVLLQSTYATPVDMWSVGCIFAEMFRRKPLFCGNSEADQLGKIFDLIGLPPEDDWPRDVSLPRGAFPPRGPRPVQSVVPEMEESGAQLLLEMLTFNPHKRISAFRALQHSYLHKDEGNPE
T1 sequence (P30281 whole entry partner): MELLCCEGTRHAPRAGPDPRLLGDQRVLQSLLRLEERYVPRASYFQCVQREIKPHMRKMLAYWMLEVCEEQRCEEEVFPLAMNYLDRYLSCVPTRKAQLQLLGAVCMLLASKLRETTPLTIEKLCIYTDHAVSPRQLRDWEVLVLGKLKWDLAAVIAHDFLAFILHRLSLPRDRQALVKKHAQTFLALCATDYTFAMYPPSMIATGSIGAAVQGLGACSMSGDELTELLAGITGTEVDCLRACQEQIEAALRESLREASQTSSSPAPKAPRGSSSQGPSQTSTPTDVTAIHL

The IC50 is the midpoint of a concentration-inhibition curve. A high value points to a need for much substance. `CO[C@H](C)c1cc2cnc(Nc3ccc4c(n3)CCN(C(=O)CO)C4)nc2c(N[C@H]2CC[C@H](O)CC2)n1` [Compound 1144]: the IC50 is less than 10 nM at CDK4/cyclin D3 and no less than 100 nM against CDK2/cyclin A2.
`O=C(CO)N1CCc2nc(Nc3ncc4cc(C5CCOC5)nc(N[C@H]5CC[C@H](O)CC5)c4n3)ccc2C1` (stereo partly drawn) [Compound 1145]: the values for the half-maximal inhibitory concentration (IC50) against CDK4/cyclin D3 and on CDK2/cyclin A2 were less than 10 nM and no less than 100 nM, respectively.
In the case of `CC1(c2cc3cnc(Nc4ccc5c(n4)CCN(C(=O)CO)C5)nc3c(N[C@H]3CC[C@H](O)CC3)n2)COC1` [Compound 1146], the IC50 against CDK4/cyclin D3 was less than 10 nM; against CDK2/cyclin A2, no less than 100 nM.
For `CCNc1nc([C@@H](C)O)cc2cnc(Nc3ccc(CN4CCC(CO)CC4)cn3)nc12` [Compound 1147] the same measures were less than 10 nM and no less than 100 nM.
For `CCCCNc1nc([C@@H](C)O)cc2cnc(Nc3ccc(CN4CCC(CO)CC4)cn3)nc12` [Compound 1148] the same measures were less than 10 nM and no less than 100 nM.
For `C[C@@H](O)c1cc2cnc(Nc3ccc(CN4CCC(CO)CC4)cn3)nc2c(NCC2CC2)n1` [Compound 1149] the same measures were less than 10 nM and no less than 100 nM.
Regarding `C[C@@H](O)c1cc2cnc(Nc3ccc(CN4CCC(CO)CC4)cn3)nc2c(NC2CCC2)n1` [Compound 1150], the IC50 against CDK4/cyclin D3 is less than 10 nM; against CDK2/cyclin A2 it was no less than 100 nM.
Consider `C[C@@H](O)c1cc2cnc(Nc3ccc(CN4CCC(CO)CC4)cn3)nc2c(N[C@H]2CC[C@H](O)CC2)n1` [Compound 1151], for which the IC50 on CDK4/cyclin D3 was less than 10 nM; against CDK2/cyclin A2, no less than 100 nM.
Take `C[C@@H](O)c1cc2cnc(Nc3ccc(CN4CCC(CO)CC4)cn3)nc2c(NCC2CCOCC2)n1` [Compound 1152]: the results for the IC50 at CDK4/cyclin D3 and against CDK2/cyclin A2 were less than 10 nM and no less than 100 nM, respectively.
For `CO[C@H](C)c1cc2cnc(Nc3ccc4c(n3)CCN(CCO)C4)nc2c(N[C@H]2CC[C@H](O)CC2)n1` [Compound 1153] the same measures were less than 10 nM and no less than 100 nM.
On to `OCCN1CCc2nc(Nc3ncc4cc(C5CCOC5)nc(N[C@H]5CC[C@H](O)CC5)c4n3)ccc2C1` (stereo partly drawn) [Compound 1154], for which the IC50 is less than 10 nM against CDK4/cyclin D3 and no less than 100 nM at CDK2/cyclin A2.
As to `CC1(c2cc3cnc(Nc4ccc5c(n4)CCN(CCO)C5)nc3c(N[C@H]3CC[C@H](O)CC3)n2)COC1` [Compound 1155], the IC50 against CDK4/cyclin D3 was less than 10 nM; against CDK2/cyclin A2, no less than 100 nM.
For `C[C@@H](O)c1cc2cnc(Nc3ccc(CN4CCC(CO)CC4)cn3)nc2c(N[C@H]2CCCOC2)n1` [Compound 1156], the IC50 against CDK4/cyclin D3 was less than 10 nM; against CDK2/cyclin A2 it was no less than 100 nM.
`CO[C@H](C)c1cc2cnc(Nc3ccc(CN4CCN(C(=O)C5CCCO5)CC4)cn3)nc2c(NC(C)C)n1` (stereo partly drawn) [Compound 1157]: the IC50 at CDK4/cyclin D3 is 10 to 100 nM; against CDK2/cyclin A2, no less than 100 nM.
For `CO[C@H](C)c1cc2cnc(Nc3ccc(CN4CCN(C(=O)C5CCOC5)CC4)cn3)nc2c(NC(C)C)n1` (stereo partly drawn) [Compound 1158] the same measures were less than 10 nM and no less than 100 nM.
On to `CCCNc1nc([C@@H](C)O)cc2cnc(Nc3ccc(N4CCC(N(C)C)CC4)nn3)nc12` [Compound 1159], for which the IC50 against CDK4/cyclin D3 is less than 10 nM; against CDK2/cyclin A2, no less than 100 nM.
For `CC(C)Nc1nc([C@@H](C)O)cc2cnc(Nc3ccc(C(=O)N4CCN(C)CC4)cn3)nc12` [Compound 1160], the IC50 is less than 10 nM against CDK4/cyclin D3 and 10 to 100 nM at CDK2/cyclin A2.
The like results for `CC(C)Nc1nc([C@@H](C)O)cc2cnc(Nc3ccc(C(=O)N4CCC(N(C)C)CC4)cn3)nc12` [Compound 1161] were, in that order, less than 10 nM and 10 to 100 nM.
For `CC(C)Nc1nc([C@@H](C)O)cc2cnc(Nc3ccc(C(=O)N4CC[C@H](N(C)C)C4)cn3)nc12` [Compound 1162] the same measures were less than 10 nM and 10 to 100 nM.
The like results for `CC(C)Nc1nc([C@@H](C)O)cc2cnc(Nc3ccc(C(=O)N4CC[C@@H](N(C)C)C4)cn3)nc12` [Compound 1163] were, in that order, less than 10 nM and 10 to 100 nM.
Take `CC(C)Nc1nc([C@@H](C)O)cc2cnc(Nc3ccc(C(=O)NCCN(C)C)cn3)nc12` [Compound 1164]: the figures for the IC50 on CDK4/cyclin D3 and at CDK2/cyclin A2 were less than 10 nM and no less than 100 nM, respectively.
Regarding `CC(C)Nc1nc([C@@H](C)O)cc2cnc(Nc3ccc(C(=O)N4CCN(CCO)CC4)cn3)nc12` [Compound 1165], the IC50 was less than 10 nM against CDK4/cyclin D3 and 10 to 100 nM on CDK2/cyclin A2.
In the case of `CC(C)Nc1nc([C@@H](C)O)cc2cnc(Nc3ccc(C(=O)N4CCNC[C@@H]4C)cn3)nc12` [Compound 1166], the IC50 on CDK4/cyclin D3 is less than 10 nM; on CDK2/cyclin A2, no less than 100 nM.
Turning to `CC(C)Nc1nc([C@@H](C)O)cc2cnc(Nc3ccc(C(=O)N4CCNC[C@H]4C)cn3)nc12` [Compound 1167], the IC50 on CDK4/cyclin D3 is less than 10 nM; against CDK2/cyclin A2, 10 to 100 nM.
Regarding `CCNc1nc([C@@H](C)O)c(C)c2cnc(Nc3ccc(CN4CCN(CCO)CC4)cn3)nc12` [Compound 1168], the IC50 against CDK4/cyclin D3 was less than 10 nM; on CDK2/cyclin A2, no less than 100 nM.
As for `CCNc1nc([C@@H](C)O)cc2cnc(Nc3ccc(CN4CCN(CCO)C(C)(C)C4)cn3)nc12` [Compound 1169], the IC50 against CDK4/cyclin D3 is less than 10 nM; against CDK2/cyclin A2, no less than 100 nM.
The like results for `C[C@@H](O)c1cc2cnc(Nc3ccc(CN4CCN(CCO)CC4)cn3)nc2c(NCC(F)(F)F)n1` [Compound 1170] were, in that order, less than 10 nM and no less than 100 nM.
For `C[C@@H](O)c1cc2cnc(Nc3ccc(CN4CCN(CCO)CC4)cn3)nc2c(NC2CC(F)C2)n1` (stereo partly drawn) [Compound 1171] the same measures were less than 10 nM and no less than 100 nM.
For `C[C@@H](O)c1cc2cnc(Nc3ccc(N4CCNCC4=O)cn3)nc2c(NC2(C)CC2)n1` [Compound 1173] the same measures were less than 10 nM and no less than 100 nM.
Regarding `C[C@@H](O)c1cc2cnc(Nc3ccc(N4CCNCC4=O)cn3)nc2c(NCC(F)(F)F)n1` [Compound 1174], the values for the IC50 against CDK4/cyclin D3 and against CDK2/cyclin A2 were less than 10 nM and no less than 100 nM, respectively.
On to `C[C@@H](O)c1cc2cnc(Nc3ccc(N4CCNCC4)nn3)nc2c(NC2(C)CC2)n1` [Compound 1175], for which the IC50 on CDK4/cyclin D3 was less than 10 nM; at CDK2/cyclin A2 it was no less than 100 nM.
On to `CO[C@H](C)c1cc2cnc(Nc3ccc(N4CCN(C(=O)C5CCCO5)CC4)nn3)nc2c(NC(C)C)n1` (stereo partly drawn) [Compound 1176], for which the IC50 against CDK4/cyclin D3 is less than 10 nM; against CDK2/cyclin A2 it was no less than 100 nM.
On to `CO[C@H](C)c1cc2cnc(Nc3ccc(N4CCN(C(=O)C5CCOC5)CC4)nn3)nc2c(NC(C)C)n1` (stereo partly drawn) [Compound 1177], for which the IC50 is less than 10 nM against CDK4/cyclin D3 and no less than 100 nM against CDK2/cyclin A2.
Regarding `CN(C)CCN1CCc2nc(Nc3ncc4cc(C5CCOC5)nc(N[C@H]5CCCOC5)c4n3)ccc2C1` (stereo partly drawn) [Compound 1178], the results for the IC50 on CDK4/cyclin D3 and at CDK2/cyclin A2 were less than 10 nM and no less than 100 nM, respectively.
For `CN(C)CCN1CCc2nc(Nc3ncc4cc(C5(C)COC5)nc(N[C@H]5CCCOC5)c4n3)ccc2C1` [Compound 1179] the same measures were less than 10 nM and no less than 100 nM.
For `CO[C@H](C)c1cc2cnc(Nc3ccc4c(n3)CCN(CCN(C)C)C4)nc2c(N[C@H]2CC[C@H](O)CC2)n1` [Compound 1180] the same measures were less than 10 nM and no less than 100 nM.
The like results for `CN(C)CCN1CCc2nc(Nc3ncc4cc(C5CCOC5)nc(N[C@H]5CC[C@H](O)CC5)c4n3)ccc2C1` (stereo partly drawn) [Compound 1181] were, in that order, less than 10 nM and no less than 100 nM.
`CN(C)CCN1CCc2nc(Nc3ncc4cc(C5(C)COC5)nc(N[C@H]5CC[C@H](O)CC5)c4n3)ccc2C1` [Compound 1182]: the half-maximal inhibitory concentration (IC50) at CDK4/cyclin D3 was less than 10 nM; against CDK2/cyclin A2 it was no less than 100 nM.
For `CC(C)Nc1nc([C@@H](C)O)cc2cnc(Nc3ccc(N4CCN(C(=O)C5CCCO5)CC4)nn3)nc12` (stereo partly drawn) [Compound 1183] the same measures were less than 10 nM and no less than 100 nM.
For `CCCCNc1nc([C@@H](C)O)cc2cnc(Nc3ccc(CN4CCC[C@@H](O)C4)cn3)nc12` [Compound 1185], the figures for the IC50 against CDK4/cyclin D3 and on CDK2/cyclin A2 were less than 10 nM and no less than 100 nM, respectively.
The like results for `CC(C)CNc1nc([C@@H](C)O)cc2cnc(Nc3ccc(CN4CCC[C@@H](O)C4)cn3)nc12` [Compound 1186] were, in that order, less than 10 nM and no less than 100 nM.
Take `C[C@@H](O)c1cc2cnc(Nc3ccc(CN4CCC[C@@H](O)C4)cn3)nc2c(N[C@H]2CC[C@H](O)CC2)n1` [Compound 1187]: the IC50 at CDK4/cyclin D3 was less than 10 nM; at CDK2/cyclin A2 it was no less than 100 nM.
In the case of `CCCCNc1nc([C@@H](C)O)cc2cnc(Nc3ccc(CN4CCC[C@H](O)C4)cn3)nc12` [Compound 1188], the figures for the IC50 against CDK4/cyclin D3 and against CDK2/cyclin A2 were less than 10 nM and no less than 100 nM, respectively.
As for `CC(C)CNc1nc([C@@H](C)O)cc2cnc(Nc3ccc(CN4CCC[C@H](O)C4)cn3)nc12` [Compound 1189], the IC50 was less than 10 nM against CDK4/cyclin D3 and no less than 100 nM on CDK2/cyclin A2.
The like results for `C[C@@H](O)c1cc2cnc(Nc3ccc(CN4CCC[C@H](O)C4)cn3)nc2c(N[C@H]2CC[C@H](O)CC2)n1` [Compound 1190] were, in that order, less than 10 nM and no less than 100 nM.
The like results for `CC(C)Nc1nc([C@@H](C)O)cc2cnc(Nc3ccc(N4CCN(C(=O)CN(C)C)CC4)nn3)nc12` [Compound 1191] were, in that order, less than 10 nM and no less than 100 nM.
Consider `CC(C)Nc1nc([C@@H](C)O)cc2cnc(Nc3ccc(CN4CCN(C(=O)C5CCCO5)CC4)cn3)nc12` (stereo partly drawn) [Compound 1192], for which the IC50 was less than 10 nM against CDK4/cyclin D3 and no less than 100 nM against CDK2/cyclin A2.
The like results for `CC(C)Nc1nc([C@@H](C)O)cc2cnc(Nc3ccc(CN4CCN(C(=O)C5CCOC5)CC4)cn3)nc12` (stereo partly drawn) [Compound 1193] were, in that order, less than 10 nM and no less than 100 nM.
